The first data set relates to cyclodextrin glycosyltransferase (E.C. 2.4.1.19).
Test: not given
Particulars: pH 7. Type of data set: biochemical, Micrococcus varians M 849.
Consider `O=S(=O)([O-])[O-].[Cu+2]` [CuSO4], for which the “Inhibition of the enzyme (in words)” value is on record as “inhibited” and the Residual activity is on record as 6%.
On to HgCl2, for which the “Inhibition of the enzyme (in words)” value is reported as “inhibited” and the Residual activity turned out to be 5%.
Compound `O=S(=O)([O-])[O-].[Mg+2]` [MgSO4] returned a Residual activity of 100%.
Same read-out and setting: under `O=C(O)c1cc[c]([Hg][Cl])cc1` [p-Chloromercuribenzoic acid] stands 95%.
The same measure, in the same setting: for `O=C(O)CI` [Monoiodoacetic acid] the value was 97%; for `[Cl-].[Cl-].[Co+2]` [CoCl2], 88%.
For the compound `O=C(O)CN(CCN(CC(=O)O)CC(=O)O)CC(=O)O` [Ethylenediaminetetraacetic acid], the “Inhibition of the enzyme (in words)” value is given as “inhibited” and the Residual activity was 2%.
Regarding `[Cl-].[Cl-].[Mg+2]` [MgCl2], the Residual activity came out at 100%.
On the same count and under the same terms, under `[Cl-].[Cl-].[Zn+2]` [ZnCl2] stands 100%.
On the same count and under the same terms, under `[Ca+2].[Cl-].[Cl-]` [CaCl2, calcium chloride] stands 100%.
On to `O=S(=O)([O-])[O-].[Fe+2]` [FeSO4], for which the “Inhibition of the enzyme (in words)” value was “inhibited” and the Residual activity is given as 10%.
With `c1cnc2c(c1)ccc1cccnc12` [O-Phenanthroline], the Residual activity came out at 100%.

Tested on in another data set: not listed separately
Description: Inactivation of the enzyme by pH and temperature, with and without calcium. To be noted: 10^-2 M calcium chloride, 15 min treatment (FIG. 6).
As for `[Ca+2].[Cl-].[Cl-]` [CaCl2, calcium chloride], the “Rise of the temperature at which the enzyme is still stable, versus absence of the metal ion” value was roughly 5 °C.

Still in this data set, the particulars now being: 10^-2 M-10^-3 M calcium chloride.
For `[Ca+2].[Cl-].[Cl-]` [CaCl2, calcium chloride], the “Thermostability of the enzyme on addition of the salt” value was “enhanced”.

(Values after US4317881A (priority 1979, dated 1982).)
